The values below come from US9580390B2, “Indazole compounds as kinase inhibitors and method of treating cancer with same” (University Health Network, priority 2011, dated 2017).

One assay addresses T1, human TTK (Homo sapiens, UniProt P33981).
T1 construct: amino terminal GST fusion of full length human TTK; purchased Invitrogen
T1 sequence (P33981 1-857): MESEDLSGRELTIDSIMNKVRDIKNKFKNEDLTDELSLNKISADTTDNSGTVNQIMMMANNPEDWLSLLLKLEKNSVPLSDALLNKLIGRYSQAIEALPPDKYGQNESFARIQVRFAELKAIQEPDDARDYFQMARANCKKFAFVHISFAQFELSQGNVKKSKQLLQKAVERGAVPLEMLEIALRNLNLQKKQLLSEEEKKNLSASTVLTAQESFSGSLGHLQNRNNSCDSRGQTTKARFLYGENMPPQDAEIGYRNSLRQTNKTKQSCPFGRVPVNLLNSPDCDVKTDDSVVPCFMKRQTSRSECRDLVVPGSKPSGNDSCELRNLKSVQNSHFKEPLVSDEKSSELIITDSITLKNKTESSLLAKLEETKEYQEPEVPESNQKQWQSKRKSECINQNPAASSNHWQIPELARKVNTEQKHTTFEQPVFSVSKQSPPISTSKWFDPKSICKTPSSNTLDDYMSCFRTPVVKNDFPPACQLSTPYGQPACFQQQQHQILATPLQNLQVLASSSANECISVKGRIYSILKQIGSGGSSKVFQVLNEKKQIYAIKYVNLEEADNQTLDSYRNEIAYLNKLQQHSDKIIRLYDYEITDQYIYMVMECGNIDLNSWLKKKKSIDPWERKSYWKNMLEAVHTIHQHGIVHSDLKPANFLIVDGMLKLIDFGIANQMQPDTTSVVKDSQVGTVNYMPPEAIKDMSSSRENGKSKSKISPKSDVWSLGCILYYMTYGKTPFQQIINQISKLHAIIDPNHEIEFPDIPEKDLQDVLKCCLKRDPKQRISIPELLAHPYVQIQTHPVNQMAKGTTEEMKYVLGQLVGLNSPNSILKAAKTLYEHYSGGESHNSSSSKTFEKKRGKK
In words: TTK inhibition assay (indirect ELISA). The following applies: read-out: TTK IC50 Range. In kind it is biochemical. (In an ELISA, binding on a coated surface is turned into a signal by an enzyme label.)

In assay [1] the test system is ovarian cancer cells (PA-1). The experiment in a line: Cancer cell line growth inhibition (SRB assay). In kind it is cell-based. To be noted: Homo sapiens, PA-1; read-out: Cancer Cell Line GI50 Range PA-1. (Sulforhodamine B stains cellular protein and so reports cell mass.)
The test system of another assay is Breast cancer cells. The experiment in a line: Cancer cell line growth inhibition (SRB assay). The following applies: Homo sapiens; MDA-MB-468; read-out: Cancer Cell Line GI50 Range MDA-MB-468. In kind it is cell-based.
Assay [2] has as its system colon cancer cells (HCT116). In words: Cancer cell line growth inhibition (SRB assay). In kind it is cell-based. To be noted: Homo sapiens, HCT-116; read-out: Cancer Cell Line GI50 Range HCT116.

Each structure is given as a SMILES string. Bounds are passed on as bounds.

In general, IC50 refers to the point on the concentration scale where inhibition reaches its midpoint. The term GI50 denotes the concentration that inhibits growth by half. Consider `O=C(NC(c1ccccc1)C1CC1)c1ccc2[nH]nc(-c3ccc(O[C@H]4C[C@H]5CC[C@@H](C4)N5)cc3)c2c1` (stereo partly drawn) [Example A375, 3-(4-((1R,3R,5S)-8-azabicyclo[3.2.1]octan-3-yloxy)phenyl)-N-(cyclopropyl(phenyl)methyl)-1H-indazole-5-carboxamide], for which the IC50 at human TTK is less than 100 nM. The GI50 in assay [1] was less than 100 nM; in the assay on Breast cancer cells it was 100 to 500 nM; in assay [2], less than 100 nM.

Take `O=C(NCC1(c2cccnc2)CC1)c1ccc2[nH]nc(-c3ccc(N4CCOCC4)cc3)c2c1` [Example A461, 3-(4-morpholinophenyl)-N-((1-(pyridin-3-yl)cyclopropyl)methyl)-1H-indazole-5-carboxamide]: at human TTK, the IC50 was less than 100 nM. For the same molecule, the GI50 (in assay [1]; in the assay with Breast cancer cells; in assay [2]) was more than 500 nM each time.

Regarding `CCC(CC)C(NC(=O)c1ccc2[nH]nc(-c3ccc(OC4CCN(C5COC5)CC4)cc3)c2c1)c1ccccn1` (stereo not shown) [Example A292, N-(2-ethyl-1-(pyridin-2-yl)butyl)-3-(4-((1-(oxetan-3-yl)piperidin-4-yl)oxy)phenyl)-1H-indazole-5-carboxamide], at human TTK, the IC50 is less than 100 nM. Moreover, the GI50 (in assay [1]; in the assay with Breast cancer cells; in assay [2]) was less than 100 nM each time.

For the molecule `CN1C2CCC1CC(Oc1ccc(-c3n[nH]c4ccc(C(=O)NC(c5ccccn5)C5CCCC5)cc34)cc1)C2` (stereo not shown) [Example A398, N-(cyclopentyl(pyridin-2-yl)methyl)-3-(4-((8-methyl-8-azabicyclo[3.2.1]octan-3-yl)oxy)phenyl)-1H-indazole-5-carboxamide], on human TTK, the IC50 was less than 100 nM. Besides, the GI50 (in assay [1]; in the assay on Breast cancer cells; in assay [2]) was less than 100 nM each time.

For `CC(C)[C@@H](NC(=O)c1ccc2[nH]nc(-c3ccc(N4CCN(C5COC5)CC4)cc3)c2c1)c1ccccc1Cl` [Example A412, (R)-N-(1-(2-chlorophenyl)-2-methylpropyl)-3-(4-(4-(oxetan-3-yl)piperazin-1-yl)phenyl)-1H-indazole-5-carboxamide], at human TTK, the IC50 is less than 100 nM. For the same molecule, the GI50 is less than 100 nM in assay [1], 100 to 500 nM in the assay with Breast cancer cells and less than 100 nM in assay [2].

Take `CC(C)CC(NC(=O)c1ccc2[nH]nc(-c3ccc(O[C@H]4C[C@H]5CC[C@@H](C4)N5C4COC4)cc3)c2c1)c1ccccc1` (stereo partly drawn) [Example A338, N-(3-methyl-1-phenylbutyl)-3-(4-(((1R,3R,5S)-8-(oxetan-3-yl)-8-azabicyclo[3.2.1]octan-3-yl)oxy)phenyl)-1H-indazole-5-carboxamide]: the IC50 at human TTK was less than 100 nM. Besides, the GI50 (in assay [1]; with Breast cancer cells; in assay [2]) was 100 to 500 nM in each case.

In the case of `CCC(CC)(CNC(=O)c1ccc2[nH]nc(-c3ccc(OC4CCN(C)CC4)cc3)c2c1)c1ccccc1` [Example A440, N-(2-ethyl-2-phenylbutyl)-3-(4-((1-methylpiperidin-4-yl)oxy)phenyl)-1H-indazole-5-carboxamide], the IC50 at human TTK was less than 100 nM. Besides, the GI50 (in assay [1]; in the assay with Breast cancer cells; in assay [2]) was 100 to 500 nM in each case.

As to `O=C(N[C@H](c1ccccn1)C1CC1)c1cc2c(-c3ccc(N4C5CCC4CC(O)C5)cc3)n[nH]c2cc1F` (stereo partly drawn) [Example A271, N-((S)-cyclopropyl(pyridin-2-yl)methyl)-6-fluoro-3-(4-((1R,3R,5S)-3-hydroxy-8-azabicyclo[3.2.1]octan-8-yl)phenyl)-1H-indazole-5-carboxamide], the IC50 on human TTK was less than 100 nM. Moreover, the GI50 in assay [1] is 100 to 500 nM; in the assay with Breast cancer cells, more than 500 nM; in assay [2], more than 500 nM.

For the molecule `O=C(N[C@H](c1ccccn1)C1CC1)c1ccc2[nH]nc(-c3ccc(OC4CCN(C[C@@H](O)C(F)(F)F)CC4)cc3)c2c1` [Example A225, N-((S)-cyclopropyl(pyridin-2-yl)methyl)-3-(4-((1-((R)-3,3,3-trifluoro-2-hydroxypropyl)piperidin-4-yl)oxy)phenyl)-1H-indazole-5-carboxamide], the IC50 on human TTK was less than 100 nM. In addition, the figures for the GI50 (in assay [1]; with Breast cancer cells; in assay [2]) were less than 100 nM, 100 to 500 nM and less than 100 nM, respectively.

As to `O=C(NCC1(OC2CCCC2)CCCCC1)c1ccc2[nH]nc(-c3ccc(OC4CCN(C5COC5)CC4)cc3)c2c1` [Example A434, N-((1-(cyclopentyloxy)cyclohexyl)methyl)-3-(4-((1-(oxetan-3-yl)piperidin-4-yl)oxy)phenyl)-1H-indazole-5-carboxamide], the IC50 on human TTK is less than 100 nM. For the same molecule, the GI50 (in assay [1]; in the assay with Breast cancer cells; in assay [2]) was more than 500 nM in each case.

With `O=CN1CCC2(CC1)CC(=O)c1cc(-c3n[nH]c4ccc(C(=O)N[C@H](c5ccccn5)C5CC5)cc34)ccc1O2` [Example A263, (S)-N-(cyclopropyl(pyridin-2-yl)methyl)-3-(1′-formyl-4-oxospiro[chroman-2,4′-piperidin]-6-yl)-1H-indazole-5-carboxamide], on human TTK, the IC50 was less than 100 nM. For the same molecule, the concentration for 50% growth inhibition (GI50) in assay [1] is less than 100 nM; with Breast cancer cells it was 100 to 500 nM; in assay [2], 100 to 500 nM.

Take `CC1(C)CC(=O)c2cc(-c3n[nH]c4ccc(C(=O)NCC5(N6CCOCC6)CCCCC5)cc34)ccc2O1` [Example A490, 3-(2,2-dimethyl-4-oxochroman-6-yl)-N-((1-morpholinocyclohexyl)methyl)-1H-indazole-5-carboxamide]: the IC50 on human TTK was 100 to 500 nM. For the same molecule, the GI50 (in assay [1]; in the assay with Breast cancer cells; in assay [2]) was more than 500 nM throughout.

Turning to `CN1[C@@H]2CC[C@H]1C[C@@H](Oc1ccc(-c3n[nH]c4ccc(C(=O)NCC5(OC6CCCC6)CCCCC5)cc34)cc1)C2` [Example A438], the IC50 at human TTK was less than 100 nM. Also, the GI50 in assay [1] is 100 to 500 nM; in the assay with Breast cancer cells it was more than 500 nM; in assay [2] it was 100 to 500 nM.

Turning to `CC(C)[C@H](NC(=O)c1ccc2[nH]nc(-c3ccc(C4CCN(C5COC5)CC4)cc3)c2c1)c1ccccc1Cl` [Example A406, (S)-N-(1-(2-chlorophenyl)-2-methylpropyl)-3-(4-(4-(oxelan-3-yl)piperidin-1-yl)phenyl)-1H-indazole-5-carboxamide], the IC50 at human TTK was less than 100 nM. Further, the GI50 (in assay [1]; in the assay with Breast cancer cells; in assay [2]) was more than 500 nM each time.

Turning to `CN1C2CCC1CC(Oc1ccc(-c3n[nH]c4ccc(C(=O)N[C@H](c5ccccn5)C5CCCC5)cc34)cc1)C2` (stereo partly drawn) [Example A252, N-((S)-cyclopentyl(pyridin-2-yl)methyl)-3-(4-(((1R,3R,5S)-8-methyl-8-azabicyclo[3.2.1]octan-3-yl)oxy)phenyl)-1H-indazole-5-carboxamide], on human TTK, the IC50 is less than 100 nM. In addition, the GI50 (in assay [1]; with Breast cancer cells; in assay [2]) was less than 100 nM in each case.

For the molecule `CC(C)[C@H](NC(=O)c1ccc2[nH]nc(-c3ccc4c(c3)C(=O)CC3(CN(C)C3)O4)c2c1)c1ccccc1Cl` [Example A255, (S)-N-(1-(2-chlorophenyl)-2-methylpropyl)-3-(1-methyl-4′-oxospiro[azetidine-3,2′-chroman]-6′-yl)-1H-indazole-5-carboxamide], on human TTK, the IC50 is less than 100 nM. The GI50 (in assay [1]; in the assay with Breast cancer cells; in assay [2]) was 100 to 500 nM in each case.

As for `CC(C)C[C@H](NC(=O)c1ccc2[nH]nc(-c3ccc(N4CC(N5CCOCC5)C4)cc3)c2c1)c1ccccc1F` [Example A276, (S)-N-(1-(2-fluorophenyl)-3-methylbutyl)-3-(4-(3-morpholinoazetidin-1-yl)phenyl)-1H-indazole-5-carboxamide], on human TTK, the IC50 was less than 100 nM. The GI50 is less than 100 nM in assay [1], 100 to 500 nM with Breast cancer cells and less than 100 nM in assay [2].

On to `O=C(NCC1(N2CCOCC2)CCC(F)(F)CC1)c1ccc2[nH]nc(-c3ccc(N4CCOCC4)cc3)c2c1` [Example A460, N-((4,4-difluoro-1-morpholinocyclohexyl)methyl)-3-(4-morpholinophenyl)-1H-indazole-5-carboxamide], for which the IC50 at human TTK is less than 100 nM. Besides, the GI50 (in assay [1]; with Breast cancer cells; in assay [2]) was more than 500 nM throughout.

In the case of `Cc1cc(=O)n(C)c2ccc(-c3n[nH]c4ccc(C(=O)N[C@H](c5ccccn5)C5CC5)cc34)cc12` [Example A238], the IC50 on human TTK is less than 100 nM. The GI50 in assay [1] is 100 to 500 nM; with Breast cancer cells, more than 500 nM; in assay [2], 100 to 500 nM.
